Reference: patent US7772246B2 (Pfizer Inc., priority 2007, dated 2010)
Read-outs that look alike come from different tables or passages of the source.

How the values were obtained:
b-Raf [1] = biological target: T1, b-Raf (Homo sapiens, UniProt P15056); test: Raf biochemical assay (in vitro kinase assay, 32-P transfer from ATP to Mek1); settings: full-length wild type b-Raf, Mek1 substrate; for inhibition at 1 µM: @ 1 μM compound, read-out: b-Raf % inhib @ 1 μM; for Ki: 25 μM ATP
T1 construct: Full-length wild type b-Raf is expressed in recombinant form and purified from bacterial or insect cells; made in house; host or cells: bacterial or insect cells
Experimental: Compounds of the present invention were evaluated for potency against b-Raf using an in vitro kinase assay. Raf kinase activity is measured in vitro by determining transfer of radiolabeled 32-P phosphate from ATP to the specific Raf substrate Mek1. Full-length wild type b-Raf is expressed in recombinant form and purified from bacterial or insect cells. Recombinant Mek1 is purified from E. coli bacterial cells. In one assay format (designated G1), the full-length wild type Mek1 is used as the b-Raf substrate. In a second assay format (designated G2), the full-length K97R Mek1 mutant is used as the b-Raf substrate.
In vitro kinase assays are performed in solution containing the following; 50 mM Hepes (pH 7.4), 5 nM b-Raf, 0.8 μM Mek1, 10 mM MgCl2, 25 μM ATP, 0.002% (v/v) Tween-20, 5 μg/mL leupeptin, 1.2 mM DTT, 2% (v/v) DMSO, 0.2-1.0 μCi [γ-^32P]ATP per well.
The assays are performed in wells of a 96 well polypropylene round bottom plate, each well containing 43.5 μL assay mix and 1.5 μL inhibitor compound or DMSO vehicle. 15 μL of b-Raf mix is added and the plate is shaken on a plate shaker and preincubated for 10 minutes at ambient temperature. The reaction is started by addition of 15 μL ATP mix and shaking. The reaction is terminated after 40 minutes by addition of 25 μL 0.5 M EDTA (pH 7.4).
60 μL of the stopped reaction is transferred to a well of a 96-well nylon 66 Biodyne A membrane Silent Screen filter plate (Nalge/Nunc: 256081). The wells are filtered and washed five times with 0.85% phosphoric acid. The filter is placed in a tray with about 50 mL 0.85% phosphoric acid and gently rotated for 10 minutes on an orbital shaker. The procedure is repeated once with fresh 0.85% phosphoric acid. Five samples of 0.5 μL of ATP mix are also spotted onto filter paper for calculation of specific activity. The filters are air dried for one hour and sandwiched between cellophane wrap on an Amersham Biosciences Storage Phosphor Screen and developed at least over night. The image is read using a Molecular Dynamics Storm 840 phosphoimager. Volumes of spots are calculated using ImageQuant5.1.
Raf kinase activity is calculated from the specific activity of [32-P] ATP, 32-P incorporation into Mek1, and the concentration of b-Raf.

b-Raf [2] = biological target: T2, b-Raf (Homo sapiens, UniProt P15056, V600E); test: Raf cellular assay (phospho-Mek1/2 ELISA in A2058 cells); assay type: cell-based; settings: human melanoma A2058 cells (b-Raf mutation), Mek1/2 Ser217/221 phosphorylation, 1 hour incubation, read-out: pMEK IC50
T2 construct: endogenous in cells; host or cells: A2058 human melanoma cells
Method in brief: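 A2058 melanoma cells (B-Raf mutant), seeded overnight in 10% FBS DMEM, were exposed to compounds (11-point 1:3 series, duplicate) for 1 h at 37 °C. Lysates were captured on anti-Mek1-coated plates and Mek1/2 Ser217/221 phosphorylation was read by anti-phospho-Mek1/2 ELISA, HRP/TMB, 450 nm.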

T2 sequence (P15056 whole entry V600E): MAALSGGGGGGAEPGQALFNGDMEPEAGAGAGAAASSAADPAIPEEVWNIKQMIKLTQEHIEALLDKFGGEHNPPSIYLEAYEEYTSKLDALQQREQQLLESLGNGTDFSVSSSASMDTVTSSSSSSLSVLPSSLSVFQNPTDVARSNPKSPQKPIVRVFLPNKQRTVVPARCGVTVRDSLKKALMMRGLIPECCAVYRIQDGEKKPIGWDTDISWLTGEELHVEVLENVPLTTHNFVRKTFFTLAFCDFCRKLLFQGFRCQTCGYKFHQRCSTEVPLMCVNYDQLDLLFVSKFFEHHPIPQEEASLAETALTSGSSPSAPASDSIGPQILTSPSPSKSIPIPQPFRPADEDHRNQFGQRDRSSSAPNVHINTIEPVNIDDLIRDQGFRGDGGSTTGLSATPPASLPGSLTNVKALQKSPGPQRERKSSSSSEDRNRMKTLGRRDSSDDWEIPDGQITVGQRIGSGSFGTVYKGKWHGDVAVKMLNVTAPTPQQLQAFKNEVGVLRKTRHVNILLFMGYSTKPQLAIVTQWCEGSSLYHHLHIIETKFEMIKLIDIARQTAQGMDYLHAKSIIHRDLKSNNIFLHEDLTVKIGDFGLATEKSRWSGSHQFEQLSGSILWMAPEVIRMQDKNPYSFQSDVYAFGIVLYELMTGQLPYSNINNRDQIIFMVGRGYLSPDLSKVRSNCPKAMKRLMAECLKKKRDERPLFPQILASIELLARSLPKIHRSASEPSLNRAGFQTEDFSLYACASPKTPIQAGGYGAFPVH
T1 sequence (P15056 whole entry): as the sequence (P15056 whole entry V600E) above, with E600V counted along it

| inhibition at 1 µM (b-Raf [1]) [%] | Ki (b-Raf [1]) [µM] | IC50 (b-Raf [2]; Table 2) [µM] | IC50 (b-Raf [2]; Table 3) [µM] | Structure (SMILES) |
| --- | --- | --- | --- | --- |
| 100 | 0.0016 | 0.918 | – | CC(CO)Nc1nccc(-c2cn(C(C)C)nc2-c2cnc3[nH]ccc3c2)n1 (stereo in doubt) [Example D-9, (2R)-2-({4-[1-isopropyl-3-(1H-pyrrolo[2,3-b]pyridin-5-yl)-1H-pyrazol-4-yl]pyrimidin-2-yl}amino)propan-1-ol] |
| 100 | 0.0005 | 0.182 | – | CC(C)n1cc(-c2ccnc(NCCF)n2)c(-c2cnc3[nH]ccc3c2)n1 [Example D-5, N-(2-fluoroethyl)-4-[1-isopropyl-3-(1H-pyrrolo[2,3-b]pyridin-5-yl)-1H-pyrazol-4-yl]pyrimidin-2-amine] |
| – | 0.0227 | 6.27 | – | C[C@H](O)CNc1nccc(-c2cn(C)nc2-c2cnc3[nH]ccc3c2)n1 [Example B-13, (2S)-1-(4-(1-methyl-3-(1H-pyrrolo[2,3-b]pyridin-5-yl)-1H-pyrazol-4-yl)pyrimidin-2-ylamino)propan-2-ol] |
| – | < 0.0001 | 0.007 | – | CC(C)n1cc(-c2ccnc(NC[C@H](C)O)n2)c(-c2cnc3[nH]cc(Cl)c3c2)n1 [Example B-11, (2S)-1-(4-(3-(3-chloro-1H-pyrrolo[2,3-b]pyridin-5-yl)-1-isopropyl-1H-pyrazol-4-yl)pyrimidin-2-ylamino)propan-2-ol] |
| 101 | 0.00136 | 0.369 | – | CC(C)n1cc(-c2ccnc(NCCO)n2)c(-c2cnc3[nH]ccc3c2)n1 [Example D-6, 2-({4-[1-isopropyl-3-(1H-pyrrolo[2,3-b]pyridin-5-yl)-1H-pyrazol-4-yl]pyrimidin-2-yl}amino)ethanol] |
| – | 0.0002 | 0.007 | – | Cc1c[nH]c2ncc(-c3nn(C(C)C)cc3-c3ccnc(NC[C@H](C)O)n3)cc12 [Example B-5, (2S)-1-(4-(1-isopropyl-3-(3-methyl-1H-pyrrolo[2,3-b]pyridin-5-yl)-1H-pyrazol-4-yl)pyrimidin-2-ylamino)propan-2-ol] |
| 100 | 0.0007 | 0.51 | – | C[C@H](O)CNc1nccc(-c2cn(CC(F)F)nc2-c2cnc3[nH]ccc3c2)n1 [Example B-14, (2S)-1-(4-(1-(2,2-difluoroethyl)-3-(1H-pyrrolo[2,3-b]pyridin-5-yl)-1H-pyrazol-4-yl)pyrimidin-2-ylamino)propan-2-ol] |
| – | 0.0015 | 0.223 | – | C[C@H](O)CNc1nccc(-c2cn(C)nc2-c2cnc3[nH]cc(Cl)c3c2)n1 [Example E-1, (2S)-1-(4-(3-(3-chloro-1H-pyrrolo[2,3-b]pyridin-5-yl)-1-methyl-1H-pyrazol-4-yl)pyrimidin-2-ylamino)propan-2-ol] |
| – | 0.005 | 5.96 | – | CC(C)n1cc(-c2ccnc(NC[C@H](C)O)n2)c(-c2cnc3ccn(C)c3n2)n1 [Example B-10] |
| – | 0.0019 | 0.188 | – | C[C@H](O)CNc1nccc(-c2cn(CC3(C)COC3)nc2-c2cnc3[nH]cc(Cl)c3c2)n1 [Example E-4, (2S)-1-(4-(3-(3-chloro-1H-pyrrolo[2,3-b]pyridin-5-yl)-1-((3-methyloxetan-3-yl)methyl)-1H-pyrazol-4-yl)pyrimidin-2-ylamino)propan-2-ol] |
| 100 | < 0.0001 | 0.015 | – | C[C@H](O)CNc1nccc(-c2cn(CC(F)F)nc2-c2cnc3[nH]cc(Cl)c3c2)n1 [Example E-2, (2S)-1-(4-(3-(3-chloro-1H-pyrrolo[2,3-b]pyridin-5-yl)-1-(2,2-difluoroethyl)-1H-pyrazol-4-yl)pyrimidin-2-ylamino)propan-2-ol] |
| – | 0.0103 | 4.01 | – | Cc1cc2cc(-c3nn(C(C)C)cc3-c3ccnc(NC[C@H](C)O)n3)cnc2[nH]1 [Example B-7, (2S)-1-(4-(1-isopropyl-3-(2-methyl-1H-pyrrolo[2,3-b]pyridin-5-yl)-1H-pyrazol-4-yl)pyrimidin-2-ylamino)propan-2-ol] |
| – | 0.0039 | 0.483 | – | C[C@H](O)CNc1nccc(-c2cn(CC#N)nc2-c2cnc3[nH]ccc3c2)n1 [Example C-1, [4-[2-((S)-2-Hydroxy-propylamino)-pyrimidin-4-yl]-3-(1H-pyrrolo[2,3-b]pyridin-5-yl)-pyrazol-1-yl]-acetonitrile] |
| 99 | 0.0048 | 3.14 | – | CCN1CC(CNc2nccc(-c3cn(C(C)C)nc3-c3cnc4[nH]ccc4c3)n2)CC1=O [Example D-14, 1-ethyl-4-[({4-[1-isopropyl-3-(1H-pyrrolo[2,3-b]pyridin-5-yl)-1H-pyrazol-4-yl]pyrimidin-2-yl}amino)methyl]-pyrrolidin-2-one] |
| 99 | 0.0014 | 1.52 | – | CC(C)n1cc(-c2ccnc(NCC3CCOC3)n2)c(-c2cnc3[nH]ccc3c2)n1 [Example D-12, 4-[1-isopropyl-3-(1H-pyrrolo[2,3-b]pyridin-5-yl)-1H-pyrazol-4-yl]-N-(tetrahydrofuran-3-ylmethyl)pyrimidin-2-amine] |
| 99 | 0.0005 | 0.386 | – | CC(C)n1cc(-c2ccnc(NCCc3cn[nH]c3)n2)c(-c2cnc3[nH]ccc3c2)n1 [Example D-7, 4-[1-isopropyl-3-(1H-pyrrolo[2,3-b]pyridin-5-yl)-1H-pyrazol-4-yl]-N-[2-(1H-pyrazol-4-yl)ethyl]pyrimidin-2-amine] |
| – | 0.0003 | 0.109 | – | Cc1n[nH]c2ncc(-c3nn(C(C)C)cc3-c3ccnc(NC[C@H](C)O)n3)cc12 [Example D-2, (2S)-1-(4-(1-isopropyl-3-(3-methyl-1H-pyrazolo[3,4-b]pyridin-5-yl)-1H-pyrazol-4-yl)pyrimidin-2-ylamino)propan-2-ol] |
| – | 0.0016 | 0.45 | – | CC(C)n1cc(-c2ccnc(NC[C@H](C)O)n2)c(-c2cnc3c(c2)CCN3)n1 [Example B-12, (2S)-1-(4-(3-(2,3-dihydro-1H-pyrrolo[2,3-b]pyridin-5-yl)-1-isopropyl-1H-pyrazol-4-yl)pyrimidin-2-ylamino)propan-2-ol] |
| – | 0.0033 | 1.98 | – | CC(C)n1cc(-c2ccnc(NC[C@H](C)O)n2)c(-c2cnc3[nH]ncc3c2)n1 [Example D-1, (2S)-1-(4-(1-isopropyl-3-(1H-pyrazolo[3,4-b]pyridin-5-yl)-1H-pyrazol-4-yl)pyrimidin-2-ylamino)propan-2-ol] |
| – | 0.0062 | 3.25 | – | C[C@H](O)CNc1nccc(-c2cn(CC3(C)COC3)nc2-c2cnc3[nH]ccc3c2)n1 [Example B-15, (2S)-1-(4-(1-((3-methyloxetan-3-yl)methyl)-3-(1H-pyrrolo[2,3-b]pyridin-5-yl)-1H-pyrazol-4-yl)pyrimidin-2-ylamino)propan-2-ol] |
| – | – | – | 0.0617 | Clc1c[nH]c2ncc(-c3nn(C4CCNCC4)cc3-c3ccncn3)cc12 [Example B-64, 3-chloro-5-(1-piperidin-4-yl-4-pyrimidin-4-yl-1H-pyrazol-3-yl)-1H-pyrrolo[2,3-b]pyridine] |
| – | – | – | 0.0481 | Cc1c[nH]c2ncc(-c3nn(C(C)C)cc3-c3ccnc(N)n3)cc12 [Example B-62, 4-[1-isopropyl-3-(3-methyl-1H-pyrrolo[2,3-b]pyridin-5-yl)-1H-pyrazol-4-yl]pyrimidin-2-amine] |
| – | – | – | 0.0133 | Cc1n[nH]c2ncc(-c3nn(C(C)(C)CO)cc3-c3ccnc(NCCC#N)n3)cc12 [Example B-94, 3-(4-(1-(1-hydroxy-2-methylpropan-2-yl)-3-(3-methyl-1H-pyrazolo[3,4-b]pyridin-5-yl)-1H-pyrazol-4-yl)pyrimidin-2-ylamino)propanenitrile] |

| Structure (SMILES) | inhibition at 1 µM (b-Raf [1]) [%] | Ki (b-Raf [1]) [µM] | IC50 (b-Raf [2]; Table 2) [µM] | IC50 (b-Raf [2]; Table 3) [µM] |
| --- | --- | --- | --- | --- |
| CC(C)n1cc(-c2ccnc(NC[C@H](C)O)n2)c(-c2cnc3[nH]ccc3c2)n1 [Example B-1, (2S)-1-(4-(1-isopropyl-3-(1H-pyrrolo[2,3-b]pyridin-5-yl)-1H-pyrazol-4-yl)pyrimidin-2-ylamino)propan-2-ol] | 102 | 0.0005 | 0.154 | – |
